± gives the expanded uncertainty stated by the source.
Experiment: xn = mol fraction of the nth substance listed
Conditions: 101 kPa, Liquid, Vibrating tube method

OCc1ccccn1 [α-picolyl alcohol] + O
mass density [kg/m3]
Conditions	293.15 K	298.15 K	303.15 K	308.15 K	313.15 K	318.15 K
x1 = 0.05	1033.4 ± 1	1031.7 ± 1	1029.2 ± 1	1027.6 ± 1	1024.4 ± 1	1021.6 ± 1
x1 = 0.15	1077.3 ± 1	1074.4 ± 1	1071 ± 1	1067.6 ± 1	1064.5 ± 1	1061.1 ± 1
x1 = 0.2	1088.5 ± 1	1085 ± 1	1080.9 ± 1	1076.8 ± 1	1073.1 ± 1	1069.3 ± 1
x1 = 0.25	1098.1 ± 1	1094 ± 1	1089.6 ± 1	1085.5 ± 1	1081.6 ± 1	1077.8 ± 1
x1 = 0.3	1106.3 ± 1	1102.9 ± 1	1098.9 ± 1	1095.1 ± 1	1091.5 ± 1	1087.9 ± 1
x1 = 0.35	1112 ± 1	1107.9 ± 1.1	1103.4 ± 1	1099.3 ± 1	1095.4 ± 1	1091.4 ± 1
x1 = 0.4	1116 ± 1.1	1111.7 ± 1.1	1106.7 ± 1.1	1102.3 ± 1.1	1098.2 ± 1.1	1094.5 ± 1.1
x1 = 0.45	1119.8 ± 1.1	1116.2 ± 1.1	1111.9 ± 1.1	1107.4 ± 1.1	1103.6 ± 1.1	1099.8 ± 1.1
x1 = 0.5	1122.4 ± 1.2	1118.9 ± 1.2	1114.7 ± 1.2	1110.8 ± 1.2	1107 ± 1.2	1103.2 ± 1.2
x1 = 0.55	1124.4 ± 1.2	1120.7 ± 1.2	1116.3 ± 1.2	1112.2 ± 1.2	1108.3 ± 1.2	1104.5 ± 1.2
x1 = 0.6	1125.7 ± 1.3	1122.1 ± 1.3	1117.9 ± 1.3	1113.9 ± 1.3	1110 ± 1.3	1106.3 ± 1.3
x1 = 0.65	1127.5 ± 1.4	1123.9 ± 1.4	1119.8 ± 1.4	1115.9 ± 1.4	1112.1 ± 1.4	1108.4 ± 1.4
x1 = 0.7	1128.4 ± 1.5	1124.8 ± 1.5	1120.7 ± 1.5	1116.9 ± 1.5	1113.1 ± 1.5	1109.5 ± 1.5
x1 = 0.75	1129.3 ± 1.6	1125.8 ± 1.6	1121.7 ± 1.6	1117.7 ± 1.6	1114.1 ± 1.6	1110.4 ± 1.6
x1 = 0.8	1130.2 ± 1.8	1126.7 ± 1.7	1122.6 ± 1.7	1118.7 ± 1.7	1115 ± 1.7	1111.2 ± 1.7
x1 = 0.9	1131.5 ± 2.1	1127.9 ± 2.1	1123.9 ± 2.1	1119.8 ± 2	1116.1 ± 2	1112.4 ± 2
x1 = 0.95	1131.9 ± 2.3	1128.3 ± 2.2	1124.3 ± 2.2	1120.3 ± 2.2	1116.6 ± 2.2	1112.9 ± 2.2
x1 = 1	1132.3 ± 2.5	1128.8 ± 2.4	1124.7 ± 2.4	1120.7 ± 2.4	1116.9 ± 2.4	1113.3 ± 2.4

OCc1cccnc1 [β-picolyl alcohol] + O
mass density [kg/m3]
Conditions	293.15 K	298.15 K	303.15 K	308.15 K	313.15 K	318.15 K
x1 = 0.05	1032.8 ± 0.2	1031.1 ± 0.2	1028.7 ± 0.2	1026.3 ± 0.2	1024.1 ± 0.2	1021.8 ± 0.2
x1 = 0.1	1056.5 ± 0.2	1054 ± 0.2	1051.1 ± 0.2	1048.2 ± 0.2	1045.5 ± 0.2	1042.8 ± 0.2
x1 = 0.15	1074.5 ± 0.2	1071.9 ± 0.2	1068.7 ± 0.2	1065.5 ± 0.2	1062.5 ± 0.2	1059.5 ± 0.2
x1 = 0.2	1089.7 ± 0.2	1086.6 ± 0.2	1083.2 ± 0.2	1079.8 ± 0.2	1076.6 ± 0.2	1073.3 ± 0.2
x1 = 0.25	1098 ± 1	1095 ± 0.3	1091.4 ± 0.3	1088 ± 1	1084.7 ± 0.3	1081.4 ± 0.3
x1 = 0.3	1106.6 ± 0.3	1103.4 ± 0.3	1099.7 ± 0.3	1096.2 ± 0.3	1092.8 ± 0.3	1089.5 ± 0.3
x1 = 0.35	1111.4 ± 0.4	1108.1 ± 0.4	1104.4 ± 0.4	1100.8 ± 0.4	1097.4 ± 0.4	1094 ± 1
x1 = 0.4	1117 ± 1	1113.7 ± 0.5	1109.9 ± 0.5	1106.3 ± 0.5	1103 ± 1	1099.4 ± 0.5
x1 = 0.45	1120.5 ± 0.6	1117.2 ± 0.6	1113.5 ± 0.6	1109.7 ± 0.6	1106.4 ± 0.6	1102.9 ± 0.6
x1 = 0.5	1123.5 ± 0.7	1120.3 ± 0.7	1116.5 ± 0.7	1112.8 ± 0.7	1109.4 ± 0.7	1106 ± 0.7
x1 = 0.55	1125.9 ± 0.9	1122.4 ± 0.8	1118.6 ± 0.8	1114.9 ± 0.8	1111.6 ± 0.8	1108.2 ± 0.8
x1 = 0.6	1128 ± 1	1124.7 ± 1	1120.8 ± 1	1117.3 ± 1	1113.8 ± 1	1110.4 ± 1
x1 = 0.65	1129.7 ± 1.1	1126.4 ± 1.1	1122.5 ± 1.1	1118.9 ± 1.1	1115.5 ± 1.1	1112.1 ± 1.1
x1 = 0.7	1131.1 ± 1.3	1127.8 ± 1.3	1123.9 ± 1.3	1120.3 ± 1.3	1116.9 ± 1.3	1113.5 ± 1.2
x1 = 0.75	1132.3 ± 1.5	1129 ± 2	1125.2 ± 1.4	1121.6 ± 1.4	1118.1 ± 1.4	1114.7 ± 1.4
x1 = 0.8	1133.5 ± 1.6	1130.1 ± 1.6	1126.3 ± 1.6	1122.7 ± 1.6	1119.3 ± 1.6	1115.9 ± 1.6
x1 = 0.85	1134.5 ± 1.8	1131.2 ± 1.8	1127.4 ± 1.8	1123.7 ± 1.8	1120.3 ± 1.8	1116.9 ± 1.8
x1 = 0.9	1135.2 ± 2	1131.8 ± 2	1128.1 ± 2	1124.5 ± 2	1121.1 ± 2	1117.7 ± 2
x1 = 0.95	1136.1 ± 2.3	1132.7 ± 2.2	1128.9 ± 2.2	1125.3 ± 2.2	1122 ± 2	1118.6 ± 2.2
x1 = 1	1136.8 ± 2.5	1133.5 ± 2.5	1129.6 ± 2.4	1125.9 ± 2.4	1122.6 ± 2.4	1119.3 ± 2.4
